target: T1, HCV NS3/4A (wild-type) (Hepatitis C virus genotype 1b, UniProt O92972); experiment: NS3/4A activity assay with FRET peptide substrate, wild-type enzyme; format: biochemical, HCV genotype 1b, strain HC-J4; conditions: wild-type NS3/4A 10 nM, Ac-DE-D(Edans)-EE-Abu-ψ-[COO]-AS-K(Dabsyl)-NH2 10 µM, 30 min pre-incubation; read-out: NS3/4A IC50
T1 construct: The NS3/4A construct represented the individual NS3 proteinase domain N-terminally fused with an NS4A co-factor; 6xHis; purchased AnaSpec (Fremont, CA)
T1 sequence (O92972 1027-1208): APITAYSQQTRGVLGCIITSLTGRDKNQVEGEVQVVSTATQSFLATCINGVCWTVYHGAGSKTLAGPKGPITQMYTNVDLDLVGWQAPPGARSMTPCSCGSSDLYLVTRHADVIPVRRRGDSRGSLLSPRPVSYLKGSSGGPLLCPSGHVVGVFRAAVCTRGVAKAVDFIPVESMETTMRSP
Description: Reagents were purchased from Sigma unless indicated otherwise. The FRET substrate Ac-DE-D(Edans)-EE-Abu-ψ-[COO]-AS-K(Dabsyl)-NH2, purified recombinant wild-type NS3/4A from HCV genotype 1b, strain HC-J4, and the mutants with the V36M, R155K, A156T, D168A and V170A resistance mutations were from AnaSpec (Fremont, CA). The NS3/4A construct represented the individual NS3 proteinase domain N-terminally fused with an NS4A co-factor and tagged with a 6xHis tag. NS3/4A was in active form and the pre-activation by pep-4A or pep4AK was not necessary. Pyroglutamic acid-Arg-Thr-Lys-Arg-7-amino-4-methylcoumarin was from Peptides International (Louisville, KY). West Nile virus NS2B-NS3 proteinase (strain NY99) was expressed, purified and refolded to restore its functional activity as described earlier. The pET15b-Den2-CF40-Gly-NS3pro 185 plasmid encoding the Dengue virus type 2 NS2B-NS3 protease was a kind gift of Dr. Subhash Vasudevan (Program in Emerging Infectious Diseases, DUKE-NUS Graduate Medical School, Singapore). DV NS2B-NS3 proteinase was expressed purified and refolded to restore its functional activity as described previously, [70]. The expression of the soluble C-terminally truncated human furin construct in Sf9 insect cells (an ovarian cell line from fall armyworm Spodoptera frugiperda; Invitrogen, Carlsbad, CA) infected with the recombinant baculovirus and purification of soluble furin from the medium were described earlier. Original human hepatocarcinoma Huh7 cells were obtained from ATCC (Manassas, VA).
The NS3/4A activity assay was performed at 37°C in triplicate in wells of a 96-well plate in 0.2 ml 50 mM HEPES, pH 7.5, containing 100 mM NaCl, 10 mM DTT, 20% glycerol, the Ac-DE-D(Edans)-EE-Abu-ψ-[COO]-AS-K(Dabsyl)-NH2 substrate (10 µM) and the NS3/4A enzyme (10 nM). Reaction velocity was monitored continuously at λex = 355 nm and λem = 500 nm for 10 min using a Spectramax Gemini EM fluorescence spectrophotometer (Molecular Devices, Sunnyvale, CA) and the initial rate of reaction v was recorded for each reaction. There was no significant additional absorption by compounds 1–8 we identified, which might interfere with NS3/4A assay. Compound stock solutions (10 mM) were made in 100% DMSO. Stocks were then diluted using the assay buffer. As a result, the final DMSO concentration was always below 1% in the assay reactions.
To measure the inhibitory potency of the compounds, their increasing concentrations were pre-incubated with the individual proteinases in the corresponding buffer for 30 min at ambient temperature. At least, 7–9 different concentrations were used for each inhibitor. The residual activity of the enzymes was then measured as above. The IC50 values of the inhibitory compounds were calculated by determining the concentrations of the compounds needed to inhibit 50% of the enzyme activity against the peptide substrate. GraphPad Prism was used as fitting software.

Row | Compound | IC50
1 | Cc1n[nH]c(=S)n1Nc1nc(SCc2ccccc2)nc2n[nH]c(Cc3nn[nH]n3)c12 [Compound 3] | 0.36 µM
2 | O=C(Nc1ccccc1)c1cc(S(=O)(=O)Nc2nc3ncccc3[nH]2)c(SSc2cc(Cl)c(C(=O)Nc3ccccc3)cc2S(=O)(=O)Nc2nc3ncccc3[nH]2)cc1Cl [Compound 1] | 0.183 µM
3 | S=c1[nH]nc(Nc2nc(SCc3ccccc3)nc3n[nH]c(Cc4nn[nH]n4)c23)s1 [Compound 6] | 0.95 µM
4 | Clc1ccc(Nc2nc(SCc3ccccc3)nc3n[nH]c(Cc4nc5ccccc5s4)c23)cc1 [Compound 5] | 0.38 µM
5 | Clc1ccc(OCc2nn3c(CCc4nnc5sc(COc6ccc(Cl)cc6)nn45)nnc3s2)cc1 [Compound 2] | 0.3 µM

Source: paper PMC3388044, “Probing of Exosites Leads to Novel Inhibitor Scaffolds of HCV NS3/4A Proteinase” (PLoS ONE, 2012)
